Consider 24 molecules from patent US11708348B2, “Protease inhibitors for treatment of coronavirus infections” (The Scripps Research Institute, priority 2021, dated 2023).

A value given as a limit tells only on which side of the number the result lay.

One assay relates to SARS-CoV-2 strain USA-WA1/2020. Briefly: microbe, parasite or virus in culture. In kind it is cell-based. Conditions: Severe acute respiratory syndrome coronavirus 2, HeLa-ACE2, 24 h, HeLa-ACE2 cells, SARS-CoV-2 infection, 24 h; cells given as a bound; read-out: EC50, uM (Hela).
As for `COc1cccc2[nH]c(C(=O)N[C@@H](CC(C)C)C(=O)N[C@@H](C[C@@H]3CCNC3=O)C(=O)COC(C(F)(F)F)C(F)(F)F)cc12` [Compound 157], the EC50 (commonly the concentration at which the effect is half-maximal) was more than 1 µM.
Consider `COc1cccc2[nH]c(C(=O)N[C@@H](CC(C)C)C(=O)N[C@@H](C[C@@H]3CCNC3=O)C(=O)COCC(F)(F)F)cc12` [Compound 162, 4-methoxy-N-((S)-4-methyl-1-oxo-1-(((S)-3-oxo-1-((S)-2-oxopyrrolidin-3-yl)-4-(2,2,2-trifluoroethoxy)butan-2-yl)amino)pentan-2-yl)-1H-indole-2-carboxamide], for which the EC50 was more than 1 µM.

Staying with this assay, now noted: Severe acute respiratory syndrome coronavirus 2, HeLa-ACE2, 24 h, HeLa-ACE2 cells, SARS-CoV-2 infection, 24 h; class symbols; read-out: EC50, uM (Hela).
On to `CC(C)C[C@H](NC(=O)C(=O)N[C@@H]1CCCc2ccccc21)C(=O)N[C@@H](C[C@@H]1CCNC1=O)C(=O)COc1c(F)c(F)cc(F)c1F` [Compound 147, N1-((S)-4-methyl-1-oxo-1-(((S)-3-oxo-1-((S)-2-oxopyrrolidin-3-yl)-4-(2,3,5,6-tetrafluorophenoxy)butan-2-yl)amino)pentan-2-yl)-N2-((R)-1,2,3,4-tetrahydronaphthalen-1-yl)oxalamide], for which the concentration for a half-maximal effect (EC50) was 0.5 to 1 µM.
Turning to `Cc1ccccc1NC(=O)C(=O)N[C@@H](Cc1ccccn1)C(=O)N[C@@H](C[C@@H]1CCNC1=O)C(=O)COc1c(F)c(F)cc(F)c1F` [Compound 148, N1-((S)-1-oxo-1-(((S)-3-oxo-1-((S)-2-oxopyrrolidin-3-yl)-4-(2,3,5,6-tetrafluorophenoxy)butan-2-yl)amino)-3-(pyridin-2-yl)propan-2-yl)-N2-(o-tolyl)oxalamide], the concentration giving a half-maximal response (EC50) was in the range of 0.05 to 0.2 µM.
On the same count and under the same terms, in the case of `CC(C)C[C@H](NC(=O)C(=O)N1CCCc2ccccc21)C(=O)N[C@@H](C[C@@H]1CCNC1=O)C(=O)COc1c(F)c(F)cc(F)c1F` [Compound 149, (S)-2-(2-(3,4-dihydroquinolin-1(2H)-yl)-2-oxoacetamido)-4-methyl-N-((S)-3-oxo-l-((S)-2-oxopyrrolidin-3-yl)-4-(2,3,5,6-tetrafluorophenoxy)butan-2-yl)pentanamide] it was 0.05 to 0.2 µM; in that of `CC(C)C[C@H](NC(=O)O[C@H]1CO[C@H]2OCC[C@H]21)C(=O)N[C@@H](C[C@@H]1CCNC1=O)C(=O)COc1c(F)c(F)cc(F)c1F` [Compound 150, (3R,3aS,6aR)-hexahydrofuro[2,3-b]furan-3-yl ((S)-4-methyl-1-oxo-1-(((S)-3-oxo-1-((S)-2-oxopyrrolidin-3-yl)-4-(2,3,5,6-tetrafluorophenoxy)butan-2-yl)amino)pentan-2-yl)carbamate], 0.2 to 0.5 µM.
Same read-out and setting: as for `CC(C)C[C@H](NC(=O)C(=O)NC1CCC(F)(F)CC1)C(=O)N[C@@H](C[C@@H]1CCNC1=O)C(=O)COc1c(F)c(F)cc(F)c1F` [Compound 151, N^1-(4,4-difluorocyclohexyl)-N^2—((S)-4-methyl-1-oxo-1-(((S)-3-oxo-1-((S)-2-oxopyrrolidin-3-yl)-4-(2,3,5,6-tetrafluorophenoxy)butan-2-yl)amino)pentan-2-yl)oxalamide], the figure is 0.05 to 0.2 µM.
Still for that read-out and setting: as for `Cc1cccc(C)c1NC(=O)C(=O)N[C@@H](CC(C)C)C(=O)N[C@@H](C[C@@H]1CCNC1=O)C(=O)COC(F)(F)F` [Compound 152, N1-(2,6-dimethylphenyl)-N2-((S)-4-methyl-1-oxo-1-(((S)-3-oxo-1-((S)-2-oxopyrrolidin-3-yl)-4-(trifluoromethoxy)butan-2-yl)amino)pentan-2-yl)oxalamide], the figure is less than 0.05 µM.
Regarding `CC(C)C[C@H](NC(=O)c1ccc2c(c1)OC(F)(F)O2)C(=O)N[C@@H](C[C@@H]1CCNC1=O)C(=O)COC(F)(F)F` [Compound 153, 2,2-difluoro-N-((S)-4-methyl-1-oxo-1-(((S)-3-oxo-1-((S)-2-oxopyrrolidin-3-yl)-4-(trifluoromethoxy)butan-2-yl)amino)pentan-2-yl)benzo[d][l,3]dioxole-5-carboxamide], the EC50 was less than 0.05 µM.
Same read-out and setting: as for `COc1ccc(C(C)=O)cc1CC(=O)N[C@@H](CC(C)C)C(=O)N[C@@H](C[C@@H]1CCNC1=O)C(=O)COc1c(F)c(F)cc(F)c1F` [Compound 154, (S)-2-(2-(5-acetyl-2-methoxyphenyl)acetamido)-4-methyl-N—((S)-3-oxo-1-((S)-2-oxopyrrolidin-3-yl)-4-(2,3,5,6-tetrafluorophenoxy)butan-2-yl)pentanamide], the figure is less than 0.05 µM; as for `CC(C)C[C@H](NC(=O)c1nc2ccccc2[nH]1)C(=O)N[C@@H](C[C@@H]1CCNC1=O)C(=O)COC(F)(F)F` [Compound 156, N-((S)-4-methyl-1-oxo-1-(((S)-3-oxo-1-((S)-2-oxopyrrolidin-3-yl)-4-(trifluoromethoxy)butan-2-yl)amino)pentan-2-yl)-1H-benzo[d]imidazole-2-carboxamide], less than 0.05 µM.
Same read-out and setting: in the case of `COc1cccc2[nH]c(C(=O)N[C@@H](CC(C)C)C(=O)N[C@@H](C[C@@H]3CCNC3=O)C(=O)COC(F)(F)F)cc12` [Compound 158, 4-methoxy-N—((S)-4-methyl-1-oxo-1-(((S)-3-oxo-1-((S)-2-oxopyrrolidin-3-yl)-4-(trifluoromethoxy)butan-2-yl)amino)pentan-2-yl)-1H-indole-2-carboxamide] it was less than 0.05 µM.
On the same count and under the same terms, in the case of `CC(C)C[C@H](NC(=O)C(=O)Nc1c(C(C)C)cccc1C(C)C)C(=O)N[C@@H](C[C@@H]1CCNC1=O)C(=O)COC(F)(F)F` [Compound 159, Nl-(2,6-diisopropylphenyl)-N2-((S)-4-methyl-1-oxo-1-(((S)-3-oxo-1-((S)-2-oxopyrrolidin-3-yl)-4-(trifluoromethoxy)butan-2-yl)amino)pentan-2-yl)oxalamide] it was less than 0.05 µM.
With `O=C(N[C@@H](CC1CC1)C(=O)N[C@@H](C[C@@H]1CCNC1=O)C(=O)COC(F)(F)F)c1cc(-c2ccccc2F)on1` [Compound 160, N-((S)-3-cyclopropyl-1-oxo-1-(((S)-3-oxo-1-((S)-2-oxopyrrolidin-3-yl)-4-(trifluoromethoxy)butan-2-yl)amino)propan-2-yl)-5-(2-fluorophenyl)isoxazole-3-carboxamide], the EC50 is less than 0.05 µM.
Still for that read-out and setting: in the case of `O=C(N[C@@H](CC1CC1)C(=O)N[C@@H](C[C@@H]1CCNC1=O)C(=O)COC(F)(F)F)c1cc2cc(F)ccc2[nH]1` [Compound 161, N-((S)-3-cyclopropyl-1-oxo-1-(((S)-3-oxo-1-((S)-2-oxopyrrolidin-3-yl)-4-(trifluoromethoxy)butan-2-yl)amino)propan-2-yl)-5-fluoro-1H-indole-2-carboxamide] it was less than 0.05 µM; in that of `CC(C)C[C@H](NC(=O)C(=O)NC1CCCCC1)C(=O)N[C@@H](C[C@@H]1CCNC1=O)C(=O)COC(F)(F)F` [Compound 163, N1-cyclohexyl-N2-((S)-4-methyl-1-oxo-1-(((S)-3-oxo-1-((S)-2-oxopyrrolidin-3-yl)-4-(trifluoromethoxy)butan-2-yl)amino)pentan-2-yl)oxalamide], less than 0.05 µM; in that of `COc1cccc(OC)c1NC(=O)C(=O)N[C@@H](CC(C)C)C(=O)N[C@@H](C[C@@H]1CCNC1=O)C(=O)COC(F)(F)F` [Compound 164, N1-(2,6-dimethoxyphenyl)-N2-((S)-4-methyl-1-oxo-1-(((S)-3-oxo-1-((S)-2-oxopyrrolidin-3-yl)-4-(trifluoromethoxy)butan-2-yl)amino)pentan-2-yl)oxalamide], less than 0.05 µM.
The same measure, in the same setting: as for `COc1cccc(C)c1NC(=O)C(=O)N[C@@H](CC(C)C)C(=O)N[C@@H](C[C@@H]1CCNC1=O)C(=O)COC(F)(F)F` [Compound 165, N1-(2-methoxy-6-methylphenyl)-N2-((S)-4-methyl-1-oxo-1-(((S)-3-oxo-1-((S)-2-oxopyrrolidin-3-yl)-4-(trifluoromethoxy)butan-2-yl)amino)pentan-2-yl)oxalamide], the figure is less than 0.05 µM.
On the same count and under the same terms, in the case of `COc1cccc(F)c1NC(=O)C(=O)N[C@@H](CC(C)C)C(=O)N[C@@H](C[C@@H]1CCNC1=O)C(=O)COC(F)(F)F` [Compound 166, N1-(2-fluoro-6-methoxyphenyl)-N2-((S)-4-methyl-1-oxo-1-(((S)-3-oxo-1-((S)-2-oxopyrrolidin-3-yl)-4-(trifluoromethoxy)butan-2-yl)amino)pentan-2-yl)oxalamide] it was less than 0.05 µM; in that of `CCc1cccc(CC)c1NC(=O)C(=O)N[C@@H](CC(C)C)C(=O)N[C@@H](C[C@@H]1CCNC1=O)C(=O)COC(F)(F)F` [Compound 167, N1-(2,6-diethylphenyl)-N2-((S)-4-methyl-1-oxo-1-(((S)-3-oxo-1-((S)-2-oxopyrrolidin-3-yl)-4-(trifluoromethoxy)butan-2-yl)amino)pentan-2-yl)oxalamide], less than 0.05 µM; in that of `CC(C)C[C@H](NC(=O)c1ccc2c(c1)OCO2)C(=O)N[C@@H](C[C@@H]1CCNC1=O)C(=O)COC(F)(F)F` [Compound 168, N-((S)-4-methyl-1-oxo-1-(((S)-3-oxo-1-((S)-2-oxopyrrolidin-3-yl)-4-(trifluoromethoxy)butan-2-yl)amino)pentan-2-yl)benzo[d][l,3]dioxole-5-carboxamide], 0.05 to 0.2 µM.
On to `CC(C)C[C@H](NC(=O)C(=O)NC1CCCCC1(F)F)C(=O)N[C@@H](C[C@@H]1CCNC1=O)C(=O)COC(F)(F)F` (stereo partly drawn) [Compound 169, N1-(2,2-difluorocyclohexyl)-N2-((S)-4-methyl-1-oxo-1-(((S)-3-oxo-1-((S)-2-oxopyrrolidin-3-yl)-4-(trifluoromethoxy)butan-2-yl)amino)pentan-2-yl)oxalamide], for which the EC50 was less than 0.05 µM.
The same measure, in the same setting: in the case of `CC(C)C[C@H](NC(=O)C(=O)Nc1c(OC(C)C)cccc1OC(C)C)C(=O)N[C@@H](C[C@@H]1CCNC1=O)C(=O)COC(F)(F)F` [Compound 170, Nl-(2,6-diisopropoxyphenyl)-N2-((S)-4-methyl-1-oxo-1-(((S)-3-oxo-1-((S)-2-oxopyrrolidin-3-yl)-4-(trifluoromethoxy)butan-2-yl)amino)pentan-2-yl)oxalamide] it was less than 0.05 µM; in that of `CC(C)C[C@H](NC(=O)c1cc(-c2ccccc2F)on1)C(=O)N[C@@H](C[C@@H]1CCNC1=O)C(=O)COC(F)(F)F` [Compound 171, 5-(2-fluorophenyl)-N-((S)-4-methyl-1-oxo-1-(((S)-3-oxo-1-((S)-2-oxopyrrolidin-3-yl)-4-(trifluoromethoxy)butan-2-yl)amino)pentan-2-yl)isoxazole-3-carboxamide], less than 0.05 µM.
